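Cells were grown in 96-well plates and exposed to each compound for 48 hours at five concentrations; endpoints were interpolated linearly between bracketing concentrations, or set to the highest concentration if not reached. The concentration for 50% growth inhibition is given as GI50. TGI denotes the concentration required for complete inhibition of growth.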
Key:
Assay in all cases: NCI tumour cell line growth inhibition, 48 h; in the data active = GI50 below about 0.43 µM; inactive = the rest
[1] = tested on: HS 578T breast
[2] = tested on: SNB-19 CNS
[3] = tested on: ACHN renal
[4] = tested on: A549 NSCLC
[5] = tested on: NCI-H460 lung
[6] = tested on: 786-0 renal
[7] = tested on: A498 renal
[8] = tested on: RXF 393 renal
[9] = tested on: KM12 colon
[10] = tested on: HT29 colon
[11] = tested on: CCRF-CEM leukemia
[12] = tested on: SNB-75 CNS
[13] = tested on: RPMI-8226 leukemia
[14] = tested on: MOLT-4 leukemia
[15] = tested on: HOP-92 NSCLC
[16] = tested on: DU-145 prostate
[17] = tested on: M14 melanoma
[18] = tested on: PC-3 prostate
[19] = tested on: U251 CNS
[20] = tested on: CAKI-1 renal
[21] = tested on: SF-295 CNS
[22] = tested on: K-562 leukemia
[23] = tested on: SR leukemia
[24] = tested on: OVCAR-8 ovarian
[25] = tested on: MDA-MB-435
[26] = tested on: SK-MEL-2 melanoma
[27] = tested on: UACC-257 melanoma
[28] = tested on: T-47D breast
[29] = tested on: IGROV1 ovarian
[30] = tested on: HCT-116 colon
[31] = tested on: MALME-3M melanoma
[32] = tested on: SK-MEL-28 melanoma
[33] = tested on: BT-549 breast
[34] = tested on: NCI/ADR-RES ovarian
[35] = tested on: MCF7 breast
[36] = tested on: OVCAR-5 ovarian
[37] = tested on: SN12C renal
[38] = tested on: UACC-62 melanoma
[39] = tested on: LOX IMVI melanoma
[40] = tested on: NCI-H23 lung
[41] = tested on: HCC-2998 colon
[42] = tested on: OVCAR-4 ovarian
[43] = tested on: NCI-H226 lung
[44] = tested on: NCI-H522 lung
[45] = tested on: SF-539 CNS
[46] = tested on: SK-OV-3 ovarian
[47] = tested on: HCT-15 colon
[48] = tested on: HOP-62 NSCLC
[49] = tested on: COLO 205 colon
[50] = tested on: SK-MEL-5 melanoma
[51] = tested on: SW-620 colon
[52] = tested on: MDA-MB-231 breast
[53] = tested on: UO-31 renal
[54] = tested on: TK-10 renal
[55] = tested on: SF-268 CNS
[56] = tested on: EKVX NSCLC
[57] = tested on: HL-60(TB) leukemia
[58] = tested on: OVCAR-3 ovarian

O=C1OC(C(O)CO)C(=O)C1=O (configuration not stated)
4.29 mM: TGI [25]
9.08 mM: TGI [22]
3.46 mM: TGI [44]
7.2 mM: TGI [46]
9.63 mM: TGI [20]
5.08 mM: TGI [51]
6.6 mM: TGI [55]
8.42 mM: TGI [13]
3.13 mM: TGI [16]
4.23 mM: TGI [15]
4.87 mM: TGI [31]
5.86 mM: TGI [35]
inactive: GI50 [1] 3.25 mM | GI50 [2] 8.28 mM | GI50 [3] 2.86 mM | GI50 [4] 9.79 mM | GI50 [5] 3.54 mM | GI50 [6] 3.17 mM | GI50 [7] 2.52 mM | GI50 [8] 1.7 mM | GI50 [9] 3.5 mM | GI50 [10] 4.24 mM | GI50 [11] 2.94 mM | GI50 [12] 6.16 mM | GI50 [13] 2.46 mM | GI50 [14] 4.12 mM | GI50 [15] 2.06 mM | GI50 [16] 1.72 mM | GI50 [17] 6.7 mM | GI50 [18] 4.41 mM | GI50 [19] 5.09 mM | GI50 [20] 3.22 mM | GI50 [21] 7.43 mM | GI50 [22] 2.86 mM | GI50 [23] 3.86 mM | GI50 [24] 5.27 mM | GI50 [25] 2.12 mM | GI50 [26] > 10 mM | GI50 [27] > 10 mM | GI50 [28] 2.79 mM | GI50 [29] 2.35 mM | GI50 [30] 2.46 mM | GI50 [31] 2.07 mM | GI50 [32] > 10 mM | GI50 [33] 4.32 mM | GI50 [34] 7.06 mM | GI50 [35] 2.35 mM | GI50 [36] 2.05 mM | GI50 [37] 2.53 mM | GI50 [38] 4.33 mM | GI50 [39] 1.95 mM | GI50 [40] 4.68 mM | GI50 [41] > 10 mM | GI50 [42] 5.58 mM | GI50 [43] > 10 mM | GI50 [44] 1.85 mM | GI50 [45] 2.49 mM | GI50 [46] 2.91 mM | GI50 [47] 3.42 mM | GI50 [48] 3.72 mM | GI50 [49] 2.8 mM | GI50 [50] > 10 mM | GI50 [51] 2.07 mM | GI50 [52] 2.72 mM | GI50 [53] 1.85 mM | GI50 [54] 2.08 mM | GI50 [55] 2.72 mM
4.33 mM: TGI [36]
8.57 mM: TGI [48]
6.73 mM: TGI [49]
4.99 mM: TGI [39]
5.44 mM: TGI [45]
7.09 mM: TGI [37]
5.17 mM: TGI [29]
7.7 mM: TGI [28]
9.94 mM: TGI [1]
> 10 mM: TGI [2] | TGI [3] | TGI [4] | TGI [5] | TGI [9] | TGI [10] | TGI [11] | TGI [12] | TGI [14] | TGI [17] | TGI [18] | TGI [19] | TGI [21] | TGI [23] | TGI [24] | TGI [26] | TGI [27] | TGI [32] | TGI [33] | TGI [34] | TGI [38] | TGI [40] | TGI [41] | TGI [42] | TGI [43] | TGI [47] | TGI [50] | TGI [52]
3.21 mM: TGI [8]
8.51 mM: TGI [7]
8.77 mM: TGI [6]
6.52 mM: TGI [30]
3.57 mM: TGI [54]
4.6 mM: TGI [53]

Cc1ccc2c(c1)C(C(=O)N[C@@H]1C(=O)N3[C@@H]1SC(C)(C)[C@@H]3C(=O)O)OCCC2 (some centres not stated)
> 0.1 mM: TGI [1] | TGI [2] | TGI [3] | TGI [4] | TGI [5] | TGI [6] | TGI [7] | TGI [8] | TGI [9] | TGI [10] | TGI [11] | TGI [12] | TGI [13] | TGI [14] | TGI [15] | TGI [16] | TGI [17] | TGI [18] | TGI [19] | TGI [20] | TGI [21] | TGI [22] | TGI [56] | TGI [23] | TGI [57] | TGI [24] | TGI [25] | TGI [26] | TGI [27] | TGI [28] | TGI [29] | TGI [30] | TGI [32] | TGI [33] | TGI [34] | TGI [35] | TGI [36] | TGI [37] | TGI [38] | TGI [39] | TGI [40] | TGI [41] | TGI [42] | TGI [43] | TGI [44] | TGI [45] | TGI [46] | TGI [47] | TGI [48] | TGI [49] | TGI [50] | TGI [51] | TGI [52] | TGI [53] | TGI [54] | TGI [55] | TGI [58]
